Earlier results, collected in patent US7422607B2, “Anti-calcification treatments for heart valves and vascular grafts” (priority 2004, dated 2008).

Conditions: buffer system described by Giradot (U.S. Pat. No. 4,976,733)

Solubility in the buffer system: extremely low solubility
SMILES: CCCCCCCC/C=C\CCCCCCC(N)C(=O)O (stereo not drawn) [alpha amino oleic acid]
